# Assay results taken from ChEMBL document CHEMBL4715851, “Research advances on selective phosphatidylinositol 3 kinase δ (PI3Kδ) inhibitors” (Bioorg Med Chem Lett, 2020).
# pIC50: −log10 of the molar value.
# Assays:
# [1] = Inhibition of C-terminal PI3Kdelta/p85 (unknown origin) expressed in baculovirus expression system using Phosphatidylinositol as substrate in presence of ATP by TR-FRET assay; set-up: species or system Homo sapiens
# [2] = biological target: T1, Phosphatidylinositol 4,5-bisphosphate 3-kinase catalytic subunit delta isoform (Homo sapiens, UniProt O00329); experiment: Inhibition of PI3K-delta (unknown origin)
# T1 sequence (O00329 whole entry): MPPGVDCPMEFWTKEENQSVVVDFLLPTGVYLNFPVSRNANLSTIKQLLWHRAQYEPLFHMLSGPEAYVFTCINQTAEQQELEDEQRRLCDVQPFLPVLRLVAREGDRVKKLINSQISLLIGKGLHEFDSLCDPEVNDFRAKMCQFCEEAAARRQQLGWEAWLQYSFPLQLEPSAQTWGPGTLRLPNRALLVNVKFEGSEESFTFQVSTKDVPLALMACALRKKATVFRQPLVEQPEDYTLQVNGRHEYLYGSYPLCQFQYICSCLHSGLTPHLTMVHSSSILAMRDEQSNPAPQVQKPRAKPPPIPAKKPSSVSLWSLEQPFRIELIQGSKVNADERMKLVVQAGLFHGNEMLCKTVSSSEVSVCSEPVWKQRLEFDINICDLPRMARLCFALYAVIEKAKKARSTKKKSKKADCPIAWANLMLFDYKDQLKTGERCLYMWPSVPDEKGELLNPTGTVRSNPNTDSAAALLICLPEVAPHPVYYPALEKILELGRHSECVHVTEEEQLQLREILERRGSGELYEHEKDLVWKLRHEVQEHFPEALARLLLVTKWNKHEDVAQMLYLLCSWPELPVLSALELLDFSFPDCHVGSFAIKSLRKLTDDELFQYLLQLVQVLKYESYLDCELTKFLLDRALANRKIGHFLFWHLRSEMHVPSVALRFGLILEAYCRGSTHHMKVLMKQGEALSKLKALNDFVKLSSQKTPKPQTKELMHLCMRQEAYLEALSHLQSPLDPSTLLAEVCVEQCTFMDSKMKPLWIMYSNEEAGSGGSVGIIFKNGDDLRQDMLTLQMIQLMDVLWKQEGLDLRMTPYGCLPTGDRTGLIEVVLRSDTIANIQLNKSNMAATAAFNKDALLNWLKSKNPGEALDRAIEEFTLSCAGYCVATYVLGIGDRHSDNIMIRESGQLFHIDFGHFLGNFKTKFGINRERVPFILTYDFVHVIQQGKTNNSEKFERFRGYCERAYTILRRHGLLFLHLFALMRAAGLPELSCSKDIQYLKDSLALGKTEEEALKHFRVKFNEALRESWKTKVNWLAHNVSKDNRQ
pIC50 [1],pIC50 [2],Compound
> 7.00,–,C[C@H](Nc1ncnc2scnc12)c1cc2cccc(-c3cnn(C)c3)c2c(=O)n1-c1ccccc1
–,6.77,C=Cc1ccc2oc3ccc(=O)n(-c4cccc(NC(=O)c5ccc(OC)nc5)c4)c3c2c1
